IC50 data for 30 compounds are collected here from US20160083391A1, “TRICYCLIC PIPERAZINE DERIVATIVE” (Sunovion Pharmaceuticals Inc., priority 2014, published 2016).

Bounds are passed on as bounds.

This test deals with PDE1. Description: In vitro HTRF PDE1 inhibition assay. As to conditions: HTRF cGMP assay, 100 nM cyclic GMP, PDE (1A3, 1B or 1C) with calmodulin, 45 minutes at 37° C.; isoform of the tabulated values not stated. Format: biochemical. An excerpt: An exemplary procedure for the in vitro Homogenous Time Resolved Fluorescence assay, which can be used to determine the inhibitory action of compounds of the invention toward. PDE1 or its isoforms, follows.
The HTRF PDE1 assay utilized the HTRF (Homogenous Time Resolved Fluorescence) technology, which is based on the competition between unlabeled cyclic nucleotide and cyclic nucleotide labeled with XL665 for the binding to cyclic nucleotide-specific antibody labeled with cryptate. The HTRF signal is thus inversely proportional to the concentration of cyclic nucleotide being measured. Since phosphodiesterases break down cyclic nucleotides the HTRF signal was used to determine PDE activity.
The Cisbio cGMP HTRF assay kit (Cat no: 62GM2PEC) was utilized. Cyclic GMP was diluted to 200 nM in HTRF assay buffer (1 mM CaCl2, 10 mM MgCl2, 10 mM Tris-HCl, 0.1% BSA, pH7.4). 10 μl of compound or DMSO was diluted in 200 nM cyclic GMP solution and added to wells of a 96 well white plate to give 100 nM cyclic GMP in 1% DMSO final concentration. PDE (1A3, 1B or 1C) was diluted to 2× working concentration in HTRF assay buffer with […] Calmodulin, and 10 μl was added to initiate the reaction. The plate was then incubated for 45 minutes at 37° C. d2-Labelled cyclic GMP and anti-cGMP cryptate were diluted in 50 mM phosphate buffer, 0.8M KF, 1% Triton X100, 0.2% BSA, pH7.0. Following incubation 10 μl d2-cGMP, then 10 μl anti cGMP cryptate were added to each well and the plate was incubated for 45 minutes at room temperature. The plate was then read on Perkin Elmer Victor at 2 different FRET readings ex/emm 340 nm/665 nm and 340 nm/615 nm.
Compounds having an IC50 of <1 μM, are denoted as +++. Compounds having an IC50 of 1-10 μM, are denoted as ++. Compounds having an IC50 of >10 μM, are denoted as +.
On to `CCCn1ncc2c(=O)n3c(nc21)CN(Cc1ccc(Cl)cc1)CC3` [Compound I-253, 8-(4-Chlorobenzyl)-1-propyl-6,7,8,9-tetrahydropyrazino[1,2-a]pyrazolo[3,4-d]pyrimidin-4(1H)-one], for which the IC50 was in the range of 1000 to 10000 nM.

Compound `COCCn1ncc2c(=O)n3c(nc21)CN(c1ccc(Cl)c(Cl)c1)CC3` [Compound I-257, 8-(3,4-Dichlorophenyl)-1-(2-methoxyethyl)-6,7,8,9-tetrahydropyrazino[1,2-a]pyrazolo[3,4-d]pyrimidin-4(1H)-one] returned an IC50 of 1000 to 10000 nM.

On to `COc1ccc(CN2CCn3c(nc4c(nnn4C4CCCC4)c3=O)C2)cc1` [Compound I-127, 3-Cyclopentyl-6-(4-methoxybenzyl)-5,6,7,8-tetrahydropyrazino[1,2-a][1,2,3]triazolo[4,5-d]pyrimidin-10(3H)-one], for which the IC50 was more than 10000 nM.

`CC1CN(Cc2ccc(Cl)cc2)Cc2nc3c(cnn3C3CCCC3)c(=O)n21` (racemic) [Compound I-121, (±)-8-(4-Chlorobenzyl)-1-cyclopentyl-6-methyl-6,7,8,9-tetrahydropyrazino[1,2-a]pyrazolo[3,4-d]pyrimidin-4(1H)-one] gave an IC50 of 1000 to 10000 nM.

`O=c1c2onc(C3CCCC3)c2nc2n1CCN(Cc1ccc(Cl)cc1)C2` [Compound I-130, 6-(4-Chlorobenzyl)-3-cyclopentyl-7,8-dihydro-5H-isoxazolo[4,5-d]pyrazino[1,2-a]pyrimidin-10(6H)-one]: the IC50 lay within 1000 to 10000 nM.

As to `O=c1c2cnn(C3CCCC3)c2nc2n1CCN(CCc1ccc(Cl)cc1)C2` [Compound I-243, 8-(4-Chlorophenethyl)-1-cyclopentyl-6,7,8,9-tetrahydropyrazino[1,2-a]pyrazolo[3,4-d]pyrimidin-4(1H)-one], the IC50 was 1000 to 10000 nM.

The compound `CC(C)Cn1ncc2c(=O)n3c(nc21)CN(Cc1cccc(Cl)c1)CC3` [Compound I-71, 8-(3-Chlorobenzyl)-1-isobutyl-6,7,8,9-tetrahydropyrazino[1,2-a]pyrazolo[3,4-d]pyrimidin-4(1B)-one] yielded an IC50 of less than 1000 nM.

In the case of `CC(C)n1ncc2c(=O)n3c(nc21)CN(C)C(Cc1ccccc1)C3` (racemic) [Compound I-110, (±)-7-Benzyl-1-isopropyl-8-methyl-6,7,8,9-tetrahydropyrazino[1,2-a]pyrazolo[3,4-d]pyrimidin-4(1H)-one], the IC50 is more than 10000 nM.

With `O=c1c2cnc(C3CC3)n2nc2n1CCN(c1ccc(Cl)cc1)C2` [Compound I-251, 7-(4-Chlorophenyl)-3-cyclopropyl-8,9-dihydro-6H-imidazo[5,1-f]pyrazino[2,1-c][1,2,4]triazin-11(7H)-one], the IC50 is less than 1000 nM.

Regarding `CC1c2nc3c(cnn3C)c(=O)n2CCN1Cc1ccccc1` (racemic) [Compound I-31, (±)-8-Benzyl-1,9-dimethyl-6,7,8,9-tetrahydropyrazino[1,2-a]pyrazolo[3,4-d]pyrimidin-4(1H)-one], the IC50 was more than 10000 nM.

Consider `O=c1c2cnn(C3CCCC3)c2nc2n1CCN(Cc1ccccc1Cl)C2` [Compound I-69, 8-(2-Chlorobenzyl)-1-cyclopentyl-6,7,8,9-tetrahydropyrazino[1,2-a]pyrazolo[3,4-d]pyrimidin-4(1H)-one], for which the IC50 was less than 1000 nM.

Compound `CC(C)n1ncc2c(=O)n3c(nc21)CN(c1ccc(C#N)cc1)CC3` [Compound I-237, 4-(1-Isopropyl-4-oxo-6,7-dihydropyrazino[1,2-a]pyrazolo[3,4-d]pyrimidin-8(1H,4H,9H)-yl)benzonitrile] registered an IC50 of less than 1000 nM.

`CC(C)n1ncc2c(=O)n3c(nc21)CN(Cc1ccc(Cl)c(Cl)c1)CC3` [Compound I-169, 8-(3,4-Dichlorobenzyl)-1-isopropyl-6,7,8,9-tetrahydropyrazino[1,2-a]pyrazolo[3,4-d]pyrimidin-4(1H)-one] registered an IC50 of less than 1000 nM.

In the case of `CC(C)c1ncc2c(=O)n3c(nn12)CN(c1ccc(F)cc1)CC3` [Compound I-176, 7-(4-Fluorophenyl)-3-isopropyl-8,9-dihydro-6H-imidazo[5,1-f]pyrazino[2,1-c][1,2,4]triazin-11(7H)-one], the IC50 is less than 1000 nM.

On to `COCCn1ncc2c(=O)n3c(nc21)CN(Cc1ccc(Cl)c(Cl)c1)CC3` [Compound I-160, 8-(3,4-Dichlorobenzyl)-1-(2-methoxyethyl)-6,7,8,9-tetrahydropyrazino[1,2-a]pyrazolo[3,4-d]pyrimidin-4(1H)-one], for which the IC50 was more than 10000 nM.

Consider `CC1CNCc2nc3c(cnn3C3CCCC3)c(=O)n21` (racemic) [Compound I-99, (±)-1-cyclopentyl-6-methyl-6,7,8,9-tetrahydropyrazino[1,2-a]pyrazolo[3,4-d]pyrimidin-4(1H)-one], for which the IC50 was more than 10000 nM.

In turn, `O=c1c2cnn(C3CCCC3)c2nc2n1CCN(Cc1cccc(Cl)c1)C2` [Compound I-72, 8-(3-Chlorobenzyl)-1-cyclopentyl-6,7,8,9-tetrahydropyrazino[1,2-a]pyrazolo[3,4-d]pyrimidin-4(1H)-one] came in with an IC50 of less than 1000 nM.

`Cc1ncc(CN2CCn3c(nn4c(C5CCCC5)ncc4c3=O)C2)cn1` [Compound I-197, 3-Cyclopentyl-7-((2-methylpyrimidin-5-yl)methyl)-8,9-dihydro-6H-imidazo[5,1-f]pyrazino[2,1-c][1,2,4]triazin-11(7H)-one] showed an IC50 of 1000 to 10000 nM.

Regarding `O=c1c2cnc(C3CCOCC3)n2nc2n1CCN(Cc1ccc(Cl)cc1)C2` [Compound I-235, 7-(4-Chlorobenzyl)-3-(tetrahydro-2H-pyran-4-yl)-8,9-dihydro-6H-imidazo[5,1-f]pyrazino[2,1-c][1,2,4]triazin-11(7H)-one], the IC50 is less than 1000 nM.

`CC(C)c1ncc2c(=O)n3c(nn12)CN(c1ccc(Cl)cn1)CC3` [Compound I-242, 7-(5-Chloropyridin-2-yl)-3-isopropyl-8,9-dihydro-6H-imidazo[5,1-f]pyrazino[2,1-c][1,2,4]triazin-11(7H)-one]: the IC50 is less than 1000 nM.

Regarding `CC(C)Cn1ncc2c(=O)n3c(nc21)CN(Cc1ccccc1Cl)CC3` [Compound I-68, 8-(2-Chlorobenzyl)-1-isobutyl-6,7,8,9-tetrahydropyrazino[1,2-a]pyrazolo[3,4-d]pyrimidin-4(1H)-one], the IC50 fell in the range of 1000 to 10000 nM.

For the compound `Cn1ncc2c(=O)n3c(nc21)C(Cc1ccccc1)NCC3` (racemic) [Compound I-7, (±)-9-Benzyl-1-methyl-6,7,8,9-tetrahydropyrazino[1,2-a]pyrazolo[3,4-d]pyrimidin-4(1H)-one], the IC50 was more than 10000 nM.

As for `O=c1c2cnn(C3CCCC3)c2nc2n1CCN(c1cccc(Cl)c1)C2` [Compound I-90, 8-(3-Chlorophenyl)-1-cyclopentyl-6,7,8,9-tetrahydropyrazino[1,2-a]pyrazolo[3,4-d]pyrimidin-4(1H)-one], the IC50 was 1000 to 10000 nM.

Compound `O=c1c2cnc(C3CCC3)n2nc2n1CCN(c1ccc(Cl)cc1)C2` [Compound I-249, 7-(4-Chlorophenyl)-3-cyclobutyl-8,9-dihydro-6H-imidazo[5,1-f]pyrazino[2,1-c][1,2,4]triazin-11(7H)-one] came in with an IC50 of less than 1000 nM.

The compound `CC(C)c1nnc2c(=O)n3c(nn12)CN(Cc1ccncc1)CC3` [Compound I-245, 3-Isopropyl-7-(pyridin-4-ylmethyl)-8,9-dihydro-6H-pyrazino[2,1-c][1,2,4]triazolo[3,4-f][1,2,4]triazin-11(7H)-one] returned an IC50 of more than 10000 nM.

`CC(C)c1nn(C)c2c(=O)n3c(nc12)C(Cc1ccccc1)N(Cc1ccccc1)CC3` (racemic) [Compound I-48, (±)-5,6-Dibenzyl-3-isopropyl-1-methyl-5,6,7,8-tetrahydropyrazino[1,2-a]pyrazolo[4,3-d]pyrimidin-10(1H)-one] registered an IC50 of more than 10000 nM.

As to `CC(C)n1ncc2c(=O)n3c(nc21)CN(Cc1cccc(-c2ccccc2)c1)CC3` [Compound I-65, 8-([1,1′-Biphenyl]-3-ylmethyl)-1-isopropyl-6,7,8,9-tetrahydropyrazino[1,2-a]pyrazolo[3,4-d]pyrimidin-4(1H)-one], the IC50 was less than 1000 nM.

With `CCOc1cc(N2CCn3c(nn4c(C(C)C)ncc4c3=O)C2)ccc1F` [Compound I-177, 7-(3-Ethoxy-4-fluorophenyl)-3-isopropyl-8,9-dihydro-6H-imidazo[5,1-f]pyrazino[2,1-c][1,2,4]triazin-11(7H)-one], the IC50 was less than 1000 nM.

Regarding `Cc1cnc(CN2CCn3c(nn4c(C5CCCC5)ncc4c3=O)C2)cn1` [Compound I-209, 3-Cyclopentyl-7-((5-methylpyrazin-2-yl)methyl)-8,9-dihydro-6H-imidazo[5,1-f]pyrazino[2,1-c][1,2,4]triazin-11(7H)-one], the IC50 was less than 1000 nM.

In turn, `CC(C)Cn1ncc2c(=O)n3c(nc21)CN(Cc1ccccc1)CC3` [Compound I-51, 8-Benzyl-1-isobutyl-6,7,8,9-tetrahydropyrazino[1,2-a]pyrazolo[3,4-d]pyrimidin-4(1H)-one] had an IC50 of 1000 to 10000 nM.
